From patent US12728147B2, “Composition for preventing or treating inflammatory disease comprising hydrolysis extract of pulsatilla koreana and anemone raddeana as active ingredient” (priority 2020, dated 2026)
Read-outs that look alike come from different tables or passages of the source.

Assays:
[1] = test system: human umbilical vein endothelial cells (HUVECs); details: cited from earlier work
[2] = test system: rats with edema induced with carrageenan; type: in vivo; details: for Average edema reduction percent: average of the reduction percent values after 2, 3 and 4 hours
Method: Each experimental group was composed of three Wistar rats, and the edema was formed by subplantar injection of 0.1 ml of a 1% (w/v) lambda carrageenan solution to the left hind paw of the rats. By the same method, 0.1 ml of physiological saline was injected into the right hind paw. […] For the control, 2 ml of physiological saline was used. As for Comparative Example 1, the group was orally administered with 10 mg/kg indomethacin. The medicinal effect was assayed as percentage (%) by measuring the volume of edema from 2 hours to 4 hours in 1 hour units after carrageenan administration. [{1−S/C}×100] (S: edema volume in the preparation administration group, C: edema volume in the carrageenan administration group) The volume of edema was measured by water plethysmography. As for Preparation 16, the anti-inflammatory effect was observed by direct injection of […] into the point of carrageenan injection on the rats. This method was used considering that in the vertebral skeletal diseases, drugs are often directly injected into affected areas in clinical practice, and the method can also be applied to the herbal acupuncture in oriental medicine. In the present invention, 0.2 ml of Preparation 14 was selected and directly injected twice at an interval of 30 minutes to the point of carrageenan injection on the left hind paw of the rats (Comparative Example 6). That is, the injection was conducted at 150 minutes and 180 minutes after carrageenan injection, and the anti-inflammatory assay was conducted 240 minutes (4 hours after carrageenan injection). Comparative Example 2 was a Preparation of 1 mg of HcolA1 mixed with 1 mg of HcolA. The control was used for a physiological saline administration group.
The edema size reduction percent (%) was expressed as the ratio of the edema size by each preparation after each hour relative to the size of edema (control) by carrageenan injection after each hour as shown below, and the average reduction percent of edema was expressed as an average value of the reduction percent values of each preparation after 2, 3, or 4 hours. Edema size reduction percent (%)={1−(edema size by each preparation/edema size by control)}×100

[3] = test system: carrageenan-induced rat paw inflammation; details: literature report; cited from earlier work

## COC1C(=O)Oc2ccccc2C1(COC(=O)C=C(C)C)OC (centres unmarked) [4-senecioyloxymethyl-3,4-dimethoxycoumarin]
[1]; at 1 μg/ml
  Inhibition of HUVEC angiogenesis: 53%

## CCC[C@H](CC/C=C/C=C/C#CC#C/C=C\CO)OC(C)=O [acetylbupleurotoxin]
[1]; at a concentration of 30 μg/ml
  Inhibition of HUVEC angiogenesis: 100%

## C[C@@H]1O[C@@H](O[C@H]2[C@H](O[C@H]3CC[C@]4(C)[C@H]5CC=C6[C@@H]7CC(C)(C)CC[C@]7(C(=O)O)CC[C@@]6(C)[C@]5(C)CC[C@H]4C3(C)C)OC[C@H](O[C@@H]3O[C@H](CO)[C@@H](O)[C@H](O)[C@H]3O)[C@@H]2O)[C@H](O)[C@H](O)[C@H]1O [hederacolchiside A1]
[1]; at a concentration of 2 μg/ml
  Inhibition of HUVEC angiogenesis: 100%

## COc1ccc2c(c1)c(CC(=O)O)c(C)n2C(=O)c1ccc(Cl)cc1 [Comparative Example 1, Indomethacin]
[2]; 2 hours after carrageenan, relative to control
  Edema size reduction percent, 2 hours: 0.012(63) %
[2]; 3 hours after carrageenan, relative to control
  Edema size reduction percent, 3 hours: 0.043(64) %
[2]; 4 hours after carrageenan, relative to control (Comparative Example 6: direct injection into point of carrageenan injection)
  Edema size reduction percent, 4 hours: 0.023(63) %
[2]; 4 hours after carrageenan, 1 ml i.p. 1 h before edema induction (Comparative Example 1 oral; Comparative Example 6: 0.2 ml injected directly twice at 150 and 180 min), mean
  Edema size over time (hour) after treatment, 4 hours: 0.321
[2]
  Average edema reduction percent: (63.3) %
[2]; listed as indomethacin
  Average edema reduction percent: 63.3%

## C[C@@H]1O[C@@H](O[C@H]2[C@H](O[C@H]3CC[C@@]4(C)[C@@H](CC[C@]5(C)[C@@H]4CC=C4[C@@H]6CC(C)(C)CC[C@]6(C(=O)O)CC[C@]45C)[C@]3(C)CO)OC[C@H](O[C@@H]3O[C@H](CO)[C@@H](O)[C@H](O)[C@H]3O)[C@@H]2O)[C@H](O)[C@H](O)[C@H]1O [hederacolchiside A]
[1]; at a concentration of 2 μg/ml
  Inhibition of HUVEC angiogenesis: did not show such activity

## CCC[C@H](O)CC/C=C/C=C/C#CC#C/C=C\CO [bupleurotoxin]
[1]; at a concentration of 30 μg/ml
  Inhibition of HUVEC angiogenesis: 100%

## C[C@@H]1O[C@@H](O[C@H]2[C@H](O[C@H]3CC[C@]4(C)[C@H]5CC=C6[C@@H]7CC(C)(C)CC[C@]7(C(=O)O[C@@H]7O[C@H](CO[C@@H]8O[C@H](CO)[C@@H](O[C@@H]9O[C@@H](C)[C@H](O)[C@@H](O)[C@H]9O)[C@H](O)[C@H]8O)[C@@H](O)[C@H](O)[C@H]7O)CC[C@@]6(C)[C@]5(C)CC[C@H]4C3(C)C)OC[C@H](O[C@@H]3O[C@H](CO)[C@@H](O)[C@H](O)[C@H]3O)[C@@H]2O)[C@H](O)[C@H](O)[C@H]1O [HcolE, hederacolchiside E]
[3]
  Anti-inflammatory effect on carrageenan-induced rat paw inflammation: insignificant

## C[C@@H]1O[C@@H](O[C@H]2[C@H](O[C@H]3CC[C@@]4(C)[C@@H](CC[C@]5(C)[C@@H]4CC=C4[C@@H]6CC(C)(C)CC[C@]6(C(=O)O[C@@H]6O[C@H](CO[C@@H]7O[C@H](CO)[C@@H](O[C@@H]8O[C@@H](C)[C@H](O)[C@@H](O)[C@H]8O)[C@H](O)[C@H]7O)[C@@H](O)[C@H](O)[C@H]6O)CC[C@]45C)[C@]3(C)CO)OC[C@H](O[C@@H]3O[C@H](CO)[C@@H](O)[C@H](O)[C@H]3O)[C@@H]2O)[C@H](O)[C@H](O)[C@H]1O [HcolF, hederacolchiside F]
[3]
  Anti-inflammatory effect on carrageenan-induced rat paw inflammation: confirmed in a predetermined range

## COc1cc([C@@H]2c3cc4c(cc3C[C@H]3COC(=O)[C@@H]32)OCO4)cc(OC)c1OC [deoxypodophyllotoxin]
[1]; at a concentration of 3 ng/ml
  Inhibition of HUVEC angiogenesis: 100%
